Data: article PMC8585091, “Central Carbon Metabolism, Sodium-Motive Electron Transfer, and Ammonium Formation by the Vaginal Pathogen Prevotella bivia” (International Journal of Molecular Sciences, 2021)

Target: T1, cytochrome bd quinol oxidase (Prevotella bivia, UniProt I4Z6X5)
T1 construct: gene PrebiDRAFT_0174; native complex in DDM-solubilized membranes, not purified; ORFs cyd-2 1143 bp and cyd-1 1536 bp; with Cytochrome bd ubiquinol oxidase subunit II
T1 sequence (I4Z6X5 1-511): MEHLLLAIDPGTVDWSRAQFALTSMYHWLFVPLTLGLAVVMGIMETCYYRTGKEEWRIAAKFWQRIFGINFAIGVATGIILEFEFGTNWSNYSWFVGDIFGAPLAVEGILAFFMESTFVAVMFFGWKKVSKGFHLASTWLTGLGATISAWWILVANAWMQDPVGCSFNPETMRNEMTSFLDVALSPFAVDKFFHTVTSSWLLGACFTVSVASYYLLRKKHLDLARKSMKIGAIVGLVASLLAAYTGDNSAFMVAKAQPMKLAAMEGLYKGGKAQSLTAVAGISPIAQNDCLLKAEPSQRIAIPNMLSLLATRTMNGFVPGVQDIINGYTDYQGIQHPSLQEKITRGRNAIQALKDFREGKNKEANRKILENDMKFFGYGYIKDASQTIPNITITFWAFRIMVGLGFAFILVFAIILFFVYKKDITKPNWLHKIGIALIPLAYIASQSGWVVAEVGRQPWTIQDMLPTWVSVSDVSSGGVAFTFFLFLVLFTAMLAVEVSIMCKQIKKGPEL
T1 sequence (I4Z6X4 1-380 partner): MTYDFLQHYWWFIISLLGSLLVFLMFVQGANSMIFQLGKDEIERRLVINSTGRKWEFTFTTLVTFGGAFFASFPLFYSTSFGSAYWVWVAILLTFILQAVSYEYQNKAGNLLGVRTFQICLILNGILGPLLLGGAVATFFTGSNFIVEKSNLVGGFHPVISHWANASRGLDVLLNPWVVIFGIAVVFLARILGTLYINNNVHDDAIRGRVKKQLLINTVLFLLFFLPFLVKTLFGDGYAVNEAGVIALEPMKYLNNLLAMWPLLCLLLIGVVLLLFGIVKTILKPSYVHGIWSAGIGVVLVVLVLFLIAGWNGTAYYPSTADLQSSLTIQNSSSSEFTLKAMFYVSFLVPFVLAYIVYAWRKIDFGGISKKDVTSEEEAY
Assay: DMNH2 oxidation with H2O2 (peroxidase activity), double-beam photometer
Type: biochemical
Settings: solubilized membranes; 200 µM DMNH2, H2O2 as acceptor, pH 7.0, 100 mM NaCl, anoxic

In the case of Cc1c(C)c(O)c2ccccc2c1O [2,3-dimethyl-1,4-naphthoquinol], the “DMNH2 oxidation with H2O2 (peroxidase activity), double-beam photometer” value is reported as “Solubilized membranes catalyzed the oxidation of the DMNH2 with H2O2 as an electron acceptor”.
